# Test results from patent US20100285959A1, “HERBICIDAL MIXTURES” (priority 2006, published 2010).
# Legend:
# [1] = test system: common lambsquarters (CHEAL); experiment: Test 4 field trial, postemergence; type: in vivo, Chenopodium album; conditions: 14 DAA
# [2] = test system: winter barley (HORVW); experiment: Test 19 growth chamber, postemergence; type: in vivo, Hordeum vulgare
# Method: A test was conducted to evaluate the effects on winter barley (HORVW, Hordeum vulgare L.) and winter wheat (TRZAW, Triticum aestivum L.) of mixtures of Compound 2 with the commercial herbicide (2,4-dichlorophenoxy)acetic acid (2,4-D), an auxin mimic. […] Plants were treated postemergence at the 3-leaf growth stage, and each treatment was replicated four times. […] Plants were watered as needed. […] Results are the means of the four replicates.
# [3] = test system: winter barley (HORVW); experiment: Test 24 growth chamber, postemergence; type: in vivo, Hordeum vulgare; conditions: 17 DAA
# Method: (§1) Plants were treated postemergence at the 2-4 leaf growth stage, and each treatment was replicated three times. […] Plants were watered as needed. […] Results for barley and wheat are the means across varieties of the three replicates, and results for the weeds are the means of the three replicates.
# [4] = test system: field poppy (PAPRH); experiment: Test 24 growth chamber, postemergence; type: in vivo, Papaver rhoeas; conditions: 17 DAA
# Method: as §1
# [5] = test system: Russian thistle (SASKR); experiment: Test 24 growth chamber, postemergence; type: in vivo, Salsola kali; conditions: 17 DAA
# Method: as §1
# [6] = test system: field violet (VIOAR); experiment: Test 24 growth chamber, postemergence; type: in vivo, Viola arvensis; conditions: 17 DAA
# Method: as §1
# [7] = test system: velvetleaf (ABUTH); experiment: Test 25 field trial, postemergence, growth as percent of control; type: in vivo, Abutilon theophrasti
# Source text: Corn seeds (hybrid ‘Pioneer 31G96 RR’) were planted in mid spring season, 3.8 cm deep in a clay loam soil having 2% organic matter and a pH of 6.6. Plots were 6.1 m long by 3.0 m wide with rows spaced 76 cm apart. Seeds were spaced 15 cm apart within the rows. The field was managed using conventional tillage practices. […] Giant ragweed and Pennsylvania smartweed could only be evaluated 14 days after application. […] Results are the means of the three replicates. This growth inhibition data was converted to results in the form of “plant growth as a percent of control plant growth” using the calculation “100 minus growth inhibition”.
# When this form of Colby's Equation is used, if the observed effects on weeds are less than the expected values, the mixture is synergistic.
# [8] = test system: corn (ZEAMD); experiment: Test 26 field trial, postemergence; type: in vivo, Zea mays ssp. indentata; set-up: scale not given here
# Source text: (§2) Corn seeds (hybrid ‘Pioneer 31G96’) were planted in mid spring season, 3.8 cm deep in a silt loam soil having 2% organic matter and a pH of 6.6. Plots were 6.1 m long by 3.0 m wide with rows spaced 76 cm apart. Seeds were spaced 15 cm apart within the rows. The field was managed using conventional tillage practices. […] All treatments also included a surfactant. […] Some of the weed species could not be evaluated at every timing. […] Results are the means of the three replicates.
# [9] = test system: common lambsquarters (CHEAL); experiment: Test 26 field trial, postemergence; type: in vivo, Chenopodium album; set-up: scale not given here
# Source text: as §2
# [10] = test system: kochia (KCHSC); experiment: Test 27 field trial, postemergence; type: in vivo, Kochia scoparia; set-up: scale not given here
# Source text: Wheat seeds (cv. ‘Custer’) were planted in late fall season in a clay loam soil. Plots were 9 m long by 1.8 m wide. The field was managed using conventional tillage practices. […] All treatments also included a surfactant. […] Results are the means of the three replicates.
# [11] = test system: sorghum (SORVU); experiment: Test 28 greenhouse, postemergence; type: in vivo, Sorghum vulgare; conditions: 26 DAA
# Method: (§3) A greenhouse test was conducted to evaluate the effects on the plant species corn (ZEAMD, Zea mays ssp. indentata), sorghum (SORVU, Sorghum vulgare L.), dry-seeded rice (ORYSA, Oryza sativa L.), wheat (TRZAW, Triticum aestivum L.), ivyleaf morningglory (IPOHE, Ipomoea hederacea (L.) JACQ.), and barnyardgrass (ECHCG, Echinochloa crus-galli (L.) P. BEAUV.), of mixtures of Compound 2 with isoxadifen-ethyl. Corn, sorghum, rice, wheat, ivyleaf morningglory and barnyardgrass seeds were planted in RediEarth, a commercial potting medium. […] Corn plants were treated postemergence at the V2 growth stage, and sorghum, rice, wheat, ivyleaf morningglory, and barnyardgrass plants were treated postemergence at the 3-leaf stage. […] Each treatment was replicated three times. […] Plants were watered as needed.
# [12] = test system: wheat (TRZAW); experiment: Test 28 greenhouse, post- and preemergence; type: in vivo, Triticum aestivum; conditions: 26 DAA
# Method: as §3
# [13] = test system: ivyleaf morningglory (IPOHE); experiment: Test 28 greenhouse, postemergence; type: in vivo, Ipomoea hederacea; conditions: 26 DAA
# Method: as §3
smiles,measurement,setting,value
"COC(=O)c1nc(C2CC2)nc(N)c1Cl [Compound 2, methyl 6-amino-5-chloro-2-cyclopropyl-4-pyrimidinecarboxylate]",CHEAL Obs,[1]; Cpd 2 30 g a.i./ha alone or with clodinafop 56 or fenoxaprop 90,83
same,CHEAL Obs,[1]; Cpd 2 60 g a.i./ha alone or with clodinafop 56 or fenoxaprop 90,92
same,HORVW Obs,[2]; in vivo,45
same,HORVW Obs (scale 0 to 100),[3]; Cpd 2 4 g a.i./ha,19
same,HORVW Obs (scale 0 to 100),[3]; Cpd 2 8 g a.i./ha,28
same,HORVW Obs (scale 0 to 100),[3]; Cpd 2 16 g a.i./ha,37
same,PAPRH Obs (scale 0 to 100),[4]; Cpd 2 4 g a.i./ha,62
same,PAPRH Obs (scale 0 to 100),[4]; Cpd 2 8 g a.i./ha,72
same,PAPRH Obs (scale 0 to 100),[4]; Cpd 2 16 g a.i./ha,75
same,SASKR Obs (scale 0 to 100),[5]; Cpd 2 4 g a.i./ha,63
same,SASKR Obs (scale 0 to 100),[5]; Cpd 2 8 g a.i./ha,75
same,SASKR Obs (scale 0 to 100),[5]; Cpd 2 16 g a.i./ha,75
same,VIOAR Obs (scale 0 to 100),[6]; Cpd 2 4 g a.i./ha,47
same,VIOAR Obs (scale 0 to 100),[6]; Cpd 2 8 g a.i./ha,62
same,VIOAR Obs (scale 0 to 100),[6]; Cpd 2 16 g a.i./ha,72
same,ABUTH Obs (percent of control),"[7]; Cpd 2 15 g a.i./ha, 14 DAA",70%
same,ABUTH Obs (percent of control),"[7]; Cpd 2 15 g a.i./ha, 28 DAA",72%
same,ABUTH Obs (percent of control),"[7]; Cpd 2 15 g a.i./ha, 56 DAA",62%
same,ABUTH Obs (percent of control),"[7]; Cpd 2 30 g a.i./ha, 14 DAA",45%
same,ABUTH Obs (percent of control),"[7]; Cpd 2 30 g a.i./ha, 28 DAA",53%
same,ABUTH Obs (percent of control),"[7]; Cpd 2 30 g a.i./ha, 56 DAA",28%
same,ABUTH Obs (percent of control),"[7]; Cpd 2 45 g a.i./ha, 14 DAA",37%
same,ABUTH Obs (percent of control),"[7]; Cpd 2 45 g a.i./ha, 28 DAA",40%
same,ABUTH Obs (percent of control),"[7]; Cpd 2 45 g a.i./ha, 56 DAA",20%
same,ZEAMD Obs,"[8]; 14 DAA, 30 g a.i./ha",0
same,ZEAMD Obs,"[8]; 14 DAA, 45 g a.i./ha",2
same,ZEAMD Obs,"[8]; 14 DAA, 60 g a.i./ha",7
same,ZEAMD Obs,"[8]; 28 DAA, 30 g a.i./ha",2
same,ZEAMD Obs,"[8]; 28 DAA, 45 g a.i./ha",3
same,ZEAMD Obs,"[8]; 28 DAA, 60 g a.i./ha",5
same,ZEAMD Obs,"[8]; 56 DAA, 30 g a.i./ha",0
same,ZEAMD Obs,"[8]; 56 DAA, 45 g a.i./ha",0
same,ZEAMD Obs,"[8]; 56 DAA, 60 g a.i./ha",7
same,CHEAL Obs,"[9]; 14 DAA, 30 g a.i./ha",88
same,CHEAL Obs,"[9]; 14 DAA, 45 g a.i./ha",63
same,CHEAL Obs,"[9]; 14 DAA, 60 g a.i./ha",100
same,CHEAL Obs,"[9]; 28 DAA, 30 g a.i./ha",100
same,CHEAL Obs,"[9]; 28 DAA, 45 g a.i./ha",100
same,CHEAL Obs,"[9]; 28 DAA, 60 g a.i./ha",100
same,CHEAL Obs,"[9]; 56 DAA, 30 g a.i./ha",100
same,CHEAL Obs,"[9]; 56 DAA, 45 g a.i./ha",100
same,CHEAL Obs,"[9]; 56 DAA, 60 g a.i./ha",100
same,KCHSC Obs,"[10]; 16 DAA, 15 g a.i./ha",30
same,KCHSC Obs,"[10]; 16 DAA, 30 g a.i./ha",65
same,KCHSC Obs,"[10]; 16 DAA, 45 g a.i./ha",78
same,KCHSC Obs,"[10]; 28 DAA, 15 g a.i./ha",43
same,KCHSC Obs,"[10]; 28 DAA, 30 g a.i./ha",79
same,KCHSC Obs,"[10]; 28 DAA, 45 g a.i./ha",94
same,KCHSC Obs,"[10]; 49 DAA, 15 g a.i./ha",32
same,KCHSC Obs,"[10]; 49 DAA, 30 g a.i./ha",73
same,KCHSC Obs,"[10]; 49 DAA, 45 g a.i./ha",96
same,SORVU Obs,[11]; Cpd 2 32 g a.i./ha,73%
same,SORVU Obs,[11]; Cpd 2 64 g a.i./ha,96%
same,TRZAW Obs,"[12]; postemergence, Cpd 2 32 g a.i./ha",80%
same,TRZAW Obs,"[12]; postemergence, Cpd 2 64 g a.i./ha",90%
same,TRZAW Obs,"[12]; preemergence, Cpd 2 32 g a.i./ha",0%
same,TRZAW Obs,"[12]; preemergence, Cpd 2 64 g a.i./ha",27%
same,IPOHE Obs,[13]; Cpd 2 32 g a.i./ha,100
same,IPOHE Obs,[13]; Cpd 2 64 g a.i./ha,100
"O=C(O)COc1ccc(Cl)cc1Cl [2,4-D, (2,4-dichlorophenoxy)acetic acid]",HORVW Obs,"[2]; Postemergence, 17 DAA, g a.i./ha: Cpd 2 16, 2,4-D 250",15
same,HORVW Obs,"[2]; Postemergence, 17 DAA, g a.i./ha: Cpd 2 16, 2,4-D 500",5
same,HORVW Obs,"[2]; Postemergence, 17 DAA, g a.i./ha: Cpd 2 16, 2,4-D 1000",10
